# Test results from patent publication US11230717B2, “Plants having increased tolerance to herbicides” (BASF SE, priority 2013, dated 2022).
# How the values were obtained:
# [1] = target: T1, Hordeum HPPD variant L353M, P321R, L320Q (Hordeum vulgare, UniProt O48604, L320Q/L353M/P321R); assay: HPPD activity assay, in vitro characterization of HPPD mutants; type: biochemical; conditions: normalized to wild-type
# T1 construct: His (N); made in house; host or cells: E. coli BL21 (DE3)
# [2] = system: transgenic Corn plants; assay: Greenhouse testing of transgenic Corn plants (homozygous T2), herbicide spray test; type: in vivo, Zea mays
# Procedure: Transgenic plants expressing heterologous HPPD or HST enzymes are tested for tolerance against HPPD-inhibiting herbicides in greenhouse experiments.
# For post emergence treatment, the test plants are first grown to a height of 3 to 15 cm, depending on the plant habit, and only then treated with the herbicides. For this purpose, the test plants are either sown directly and grown in the same containers, or they are first grown separately and transplanted into the test containers a few days prior to treatment. For testing of T0 plants, cuttings can be used. In the case of soybean plants, an optimal shoot for cutting is about 7.5 to 10 cm tall, with at least two nodes present. Each cutting is taken from the original transformant (mother plant) and dipped into rooting hormone powder (indole-3-butyric acid, IBA). The cutting is then placed in oasis wedges inside a bio-dome. Wild type cuttings are also taken simultaneously to serve as controls. The cuttings are kept in the bio-dome for 5-7 days and then transplanted to pots and then acclimated in the growth chamber for two more days. Subsequently, the cuttings are transferred to the greenhouse, acclimated for approximately 4 days, and then subjected to spray tests as indicated.
# Depending on the species, the plants are kept at 10-25° C. or 20-35° C. The test period ex-tends over 3 weeks. During this time, the plants are tended and their response to the individual treatments is evaluated. Herbicide injury evaluations are taken at 2 and 3 weeks after treatment. Plant injury is rated on a scale of 0 to 9, 0 being no injury and 9 being complete death.
# Transgenic corn plants were sprayed with doses from 62.5-250 g/ha with the benzamide-derivative HPPD-inhibiting herbicide and injury evaluations were taken two weeks after treatment. […] As depicted in Table 19, control plants were severely injured by all doses of herbicide applied, with 86% of leaf material being damaged at the highest rate applied. […] Application of 250 g/ha active ingredient resulted only in 10% leaf damage (event 1) in transgenic plants which gave in direct comparison with wild-type plants (injury value is 86%) an 8-fold increased tolerance at this application rate. In addition, transgenic corn plants comprising a transgene encoding the mutated version of Arabidopsis HPPD with methionine 335 exchanged to histidine, are tolerant for the benzamide-derivative inhibitor tested in the present invention.
# [3] = system: transgenic Soy plants; assay: Greenhouse testing of transgenic Soy plants (T2), herbicide spray test; type: in vivo, Glycine max
# T1 sequence (O48604 whole entry R146V/R147D/R148G/A164G/L320Q/P321R/L353M): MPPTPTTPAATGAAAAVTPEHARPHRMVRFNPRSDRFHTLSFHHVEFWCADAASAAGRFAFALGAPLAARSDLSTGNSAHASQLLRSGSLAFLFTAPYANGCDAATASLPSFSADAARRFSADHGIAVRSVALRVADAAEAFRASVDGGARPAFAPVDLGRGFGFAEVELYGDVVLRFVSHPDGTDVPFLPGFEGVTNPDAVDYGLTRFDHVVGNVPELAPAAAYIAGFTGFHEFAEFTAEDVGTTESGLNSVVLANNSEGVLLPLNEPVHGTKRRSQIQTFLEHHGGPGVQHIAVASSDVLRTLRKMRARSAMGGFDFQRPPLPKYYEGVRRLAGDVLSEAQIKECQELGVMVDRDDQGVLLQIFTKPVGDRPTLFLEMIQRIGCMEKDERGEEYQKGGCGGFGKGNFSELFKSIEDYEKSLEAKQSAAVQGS
smiles,measurement,setting,value
"Cn1nnnc1NC(=O)c1c(F)cc(Cl)c(S(C)(=O)=O)c1Cl [Inhibitor 1, 2,4-dichloro-6-fluoro-3-methylsulfonyl-N-(1-methyltetrazol-5-yl)benzamide]",Normalized tolerance index (TI),[1],2.5
"CSc1c(Cl)cc(F)c(C(=O)Nc2ncnn2C)c1Cl [Inhibitor 3, 2,4-dichloro-6-fluoro-3-methylsulfanyl-N-(2-methyl-1,2,4-triazol-3-yl)benzamide]","Injury evaluation, scale 0-100%","[2]; Corn AtL385V, I393L Event 1, 62.5 g/ha, two weeks",3%
same,"Injury evaluation, scale 0-100%","[2]; Corn AtL385V, I393L Event 1, 125 g/ha, two weeks",7%
same,"Injury evaluation, scale 0-100%","[2]; Corn AtL385V, I393L Event 1, 250 g/ha, two weeks",10%
same,"Injury evaluation, scale 0-100%","[2]; Corn AtL385V, I393L Event 2, 62.5 g/ha, two weeks",6%
same,"Injury evaluation, scale 0-100%","[2]; Corn AtL385V, I393L Event 2, 125 g/ha, two weeks",10%
same,"Injury evaluation, scale 0-100%","[2]; Corn AtL385V, I393L Event 2, 250 g/ha, two weeks",47%
same,"Injury evaluation, scale 0-100%","[2]; Corn AtM335H, 62.5 g/ha, two weeks",3%
same,"Injury evaluation, scale 0-100%","[2]; Corn AtM335H, 125 g/ha, two weeks",4%
same,"Injury evaluation, scale 0-100%","[2]; Corn AtM335H, 250 g/ha, two weeks",6%
same,"Injury evaluation, scale 0-100%","[2]; Corn WT, 62.5 g/ha, two weeks after treatment",40%
same,"Injury evaluation, scale 0-100%","[2]; Corn WT, 125 g/ha, two weeks after treatment",63%
same,"Injury evaluation, scale 0-100%","[2]; Corn WT, 250 g/ha, two weeks after treatment",86%
same,"Injury evaluation, scale 0-100%","[3]; Soy AtHPPD Event 1, 31.25 g/ha, two weeks",10%
same,"Injury evaluation, scale 0-100%","[3]; Soy AtHPPD Event 1, 62.5 g/ha, two weeks",16%
same,"Injury evaluation, scale 0-100%","[3]; Soy AtHPPD Event 1, 125 g/ha, two weeks",44%
same,"Injury evaluation, scale 0-100%","[3]; Soy AtHPPD Event 2, 31.25 g/ha, two weeks",13%
same,"Injury evaluation, scale 0-100%","[3]; Soy AtHPPD Event 2, 62.5 g/ha, two weeks",23%
same,"Injury evaluation, scale 0-100%","[3]; Soy AtHPPD Event 2, 125 g/ha, two weeks",40%
same,"Injury evaluation, scale 0-100%","[3]; Soy AtL385V, I393L Event 2, 31.25 g/ha, two weeks",20%
same,"Injury evaluation, scale 0-100%","[3]; Soy AtL385V, I393L Event 2, 62.5 g/ha, two weeks",35%
same,"Injury evaluation, scale 0-100%","[3]; Soy AtL385V, I393L Event 2, 125 g/ha, two weeks",38%
same,"Injury evaluation, scale 0-100%","[3]; Soy AtM335H Event 1, 31.25 g/ha, two weeks",10%
same,"Injury evaluation, scale 0-100%","[3]; Soy AtM335H Event 1, 62.5 g/ha, two weeks",21%
same,"Injury evaluation, scale 0-100%","[3]; Soy AtM335H Event 1, 125 g/ha, two weeks",33%
same,"Injury evaluation, scale 0-100%","[3]; Soy AtM335H Event 2, 31.25 g/ha, two weeks",14%
same,"Injury evaluation, scale 0-100%","[3]; Soy AtM335H Event 2, 62.5 g/ha, two weeks",29%
same,"Injury evaluation, scale 0-100%","[3]; Soy AtM335H Event 2, 125 g/ha, two weeks",31%
same,"Injury evaluation, scale 0-100%","[3]; Soy AtM335Y, 31.25 g/ha, two weeks",9%
same,"Injury evaluation, scale 0-100%","[3]; Soy AtM335Y, 62.5 g/ha, two weeks",45%
same,"Injury evaluation, scale 0-100%","[3]; Soy AtM335Y, 125 g/ha, two weeks",46%
same,"Injury evaluation, scale 0-100%","[3]; Soy AtP336A, E363Q, L385V, I393L, 31.25 g/ha, two weeks",30%
same,"Injury evaluation, scale 0-100%","[3]; Soy AtP336A, E363Q, L385V, I393L, 62.5 g/ha, two weeks",30%
same,"Injury evaluation, scale 0-100%","[3]; Soy AtP336A, E363Q, L385V, I393L, 125 g/ha, two weeks",50%
same,"Injury evaluation, scale 0-100%","[3]; Soy GmHPPD1, 31.25 g/ha, two weeks",15%
same,"Injury evaluation, scale 0-100%","[3]; Soy GmHPPD1, 62.5 g/ha, two weeks",29%
same,"Injury evaluation, scale 0-100%","[3]; Soy GmHPPD1, 125 g/ha, two weeks",46%
same,"Injury evaluation, scale 0-100%","[3]; Soy, transgene none, 31.25 g/ha, two weeks after treatment",49%
same,"Injury evaluation, scale 0-100%","[3]; Soy, transgene none, 62.5 g/ha, two weeks after treatment",68%
same,"Injury evaluation, scale 0-100%","[3]; Soy, transgene none, 125 g/ha, two weeks after treatment",79%
